Assay results from patent US10537555B2, “Complex of angiotensin receptor antagonist and neutral endopeptidase inhibitor” (CHENGDU EASTON BIOPHARMACEUTICALS CO., LTD., priority 2015, dated 2020).

Legend:
Format in all cases: physicochemical
[1] = Chemical stability test (HPLC purity under strong light, high temperature, high humidity); set-up: Purity, Valsartan: unit not given here
Source text: On Day 5 and Day 10, respectively, test samples were taken to test their purity.

[2] = Hygroscopy test (25±1° C., RH 80%±2%, 24 hours); settings: for Appearance at Hour Twenty-Four / Weight Increase: 24 hours
Source text: The results are in Table XII.

[3] = LCZ696 under high humidity conditions for ten days
Source text: LCZ696 is highly hygroscopic. […] It is well known that hygroscopicity causes difficulties in granulations, disintegration, dissolution of the solid form during the formulation process, affecting the stability and efficacy of the drug product. Hygroscopic compounds also require more expensive and complex excipients, manufacturing processes, and storage facilities.

Change of HPLC purity in stability test ([1]; 10 days at 60° C., 25° C. RH90%±5%, or 4500 lux±500 lux): only slight decreases in purities | Purity, Valsartan ([1]; Humidity 25° C. RH90%, 5 days): 37.05 | Purity, Valsartan ([1]; Humidity 25° C. RH90%, 10 days): 37.01 | Purity, Valsartan ([1]; Light 4500Lux, 5 days): 37.04 | Purity, Valsartan ([1]; Light 4500Lux, 10 days): 36.99 | Purity, Valsartan ([1]; Temperature 60° C., 5 days): 37.03 | Purity, Valsartan ([1]; Temperature 60° C., 10 days): 36.98 | Appearance at Hour Twenty-Four [2]: Almost a liquid | Weight Increase [2]: 22.34% | Appearance at Hour Twenty-Four ([2]; listed as comparative example): almost became a liquid | Weight Increase ([2]; listed as comparative example): more than 15% | Appearance at Hour Zero ([2]; hour zero): Off white powder
Structure (SMILES): CCCCC(=O)N(Cc1ccc(-c2ccccc2-c2nn[n-]n2)cc1)C(C(=O)[O-])C(C)C.CCCCC(=O)N(Cc1ccc(-c2ccccc2-c2nn[n-]n2)cc1)C(C(=O)[O-])C(C)C.CCOC(=O)C(C)CC(Cc1ccc(-c2ccccc2)cc1)NC(=O)CCC(=O)[O-].CCOC(=O)C(C)CC(Cc1ccc(-c2ccccc2)cc1)NC(=O)CCC(=O)[O-].O.O.O.O.O.[Na+].[Na+].[Na+].[Na+].[Na+].[Na+] (stereo not shown) [Comparative Example]
Hygroscopicity, physical form after exposure [3]: absorbs water and turns into a liquid form
